Source: US6274738A, “Carboxamide derivatives having aryl and thiazole rings” (Geron Corporation, priority 1997, dated 2001)

biological target: T1, DNA primase (Homo sapiens, UniProt P49642+P49643); assay: Primase activity assay (incorporation of radioactive dATP on poly(dT) template); type: biochemical; settings: approximate concentration at which 50% of the primase enzyme activity was inhibited; determined using the methods described herein; read-out: IC50 (primase-inhibiting properties)
T1 construct: using a nuclear extract comprising primase activity, as described above; endogenous in cells; host or cells: nuclear extract
Experimental: In the assay, primase was diluted with primase dilution buffer (50% glycerol, 50 mM Tris HCl (pH 8.0) 20 mM KCl, 1 mM EDTA, 1 mM βME) to achieve a selected reaction volume (typically, reactions were carried out in an overall volume of 60 μl). A typical 60 μl reaction volume further included 50 mM Tris HCl (pH 8.0); 20 mM KCl, 200 μg/ml BSA, 4 mM MgCl2, 2 mM fresh DTT, 2 mM rATP, 5 μCi ^32 P (800 Ci/mmol) or 2.5 μCi ^33 P (2,000 Ci/mMol) dATP, 10 μg/ml Poly (dT), and primase and polymerase α.
The recombinant 180 Kd human polymerase ax protein was isolated from a bacculovirally transduced SF9 cell as described in Wang et al. (1995) Methods in Enzymology 262: 77-84. Typically, about 0.05 μg of p180 and about 0.025 μg of a 1:1 mixture of p49/p58 primase subunits were used per reaction.
Several reactions were typically set up in parallel, although a single reaction can also be assessed. For example, a Zymate XP (Zymark Corporation; Hopkinton, Mass.) automated robot using Microlab 2200 (Hamilton; Reno, Nev.) pipeting station to transfer parallel samples to 96 well microtiter plate was used to set up several parallel simultaneous reactions.
Parallel reactions were incubated for 30 minutes at 30° C. 15 μl of each reaction was spotted into one well on a Unifilter plate (Whatman GF/C glass fiber filter bottom), typically using the automated system described. The filters were then air dried. The Unifilter plate was placed onto the vacuum chamber of a dot blot apparatus, and 200 μl of ice cold 5% TCA/20 mM sodium pyrophosphate wash was added to each well, and vacuum applied. Each filter was washed three times. 100 μl of an ice cold 70% ethanol wash was added then added to each well, and vacuum applied. The ethanol wash was repeated, and the filters allowed to air dry. Excess fluid was removed from the bottom of the plate. The bottom of the plate was sealed with a transparent sealer, and 50 μl of Microscint-20 scintillation fluid was added to each well, e.g., using a Biomek1000® (Beckman Instruments; Dallas, Tex.). The top of the plate was sealed with TOPSEAL-S® Microplate Heat Sealing Film and CPM were counted for each well using a topcount microplate scintillation counter (Packard; Downers Grove, Ill.) or Trilux Microbeta 1450 (Wallac; Gaithersburg, Md.).
An assay similar to Example 2 was also developed to measure primase activity. Although the assay is described below with reference to using a nuclear extract as the source for primase activity, one of skill will recognize that the assay can easily be adapted for purified or recombinant primase. Examples 1 and 2 provide a description of the buffers, nuclear extracts, etc.
The reagents were combined into one or more separate reaction mixtures, with the poly dT, nuclear extract, and ^32 dATP being added just before use. The reaction mixtures were incubated for 1 hour at 37° C. The reactions were spotted onto filters on a unifilter plate and treated as described in Example 2.
The primase modulator compounds show in FIG. 1 were determined to modulate primase activity in the assays shown above, using a nuclear extract comprising primase activity, as described above.
For primary screening, compounds were added at the beginning of the reaction with all reagents as described above. Compounds were tested at a concentration of 100 μM. Compounds were tested in duplicate reactions.
This concentration information was used to determine the approximate IC50 for the primase modulating agents described in FIG. 1. The extract/enzyme preparation for primase modulating agents was preincubated with the compound for 30 min at 37° C. prior to addition of the remaining reagents.
The example modulators are primase inhibitors. The IC50 s for the compounds indicated in FIG. 1 was the approximate concentration of the modulator at which 50% of the primase enzyme activity in a reaction mixture was inhibited by the modulator.

T1 sequence (P49642 whole entry): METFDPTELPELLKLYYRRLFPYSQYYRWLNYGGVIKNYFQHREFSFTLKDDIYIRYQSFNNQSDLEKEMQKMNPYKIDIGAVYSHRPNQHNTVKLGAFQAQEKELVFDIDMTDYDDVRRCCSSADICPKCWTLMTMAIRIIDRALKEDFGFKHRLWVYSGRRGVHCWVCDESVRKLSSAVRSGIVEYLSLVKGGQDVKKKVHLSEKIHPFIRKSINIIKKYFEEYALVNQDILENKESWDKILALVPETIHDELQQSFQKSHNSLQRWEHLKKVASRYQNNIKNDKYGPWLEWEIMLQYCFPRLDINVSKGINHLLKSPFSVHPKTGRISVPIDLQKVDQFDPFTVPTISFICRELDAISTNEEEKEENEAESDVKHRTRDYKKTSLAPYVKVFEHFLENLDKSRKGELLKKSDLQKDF
T1 sequence (P49643 whole entry): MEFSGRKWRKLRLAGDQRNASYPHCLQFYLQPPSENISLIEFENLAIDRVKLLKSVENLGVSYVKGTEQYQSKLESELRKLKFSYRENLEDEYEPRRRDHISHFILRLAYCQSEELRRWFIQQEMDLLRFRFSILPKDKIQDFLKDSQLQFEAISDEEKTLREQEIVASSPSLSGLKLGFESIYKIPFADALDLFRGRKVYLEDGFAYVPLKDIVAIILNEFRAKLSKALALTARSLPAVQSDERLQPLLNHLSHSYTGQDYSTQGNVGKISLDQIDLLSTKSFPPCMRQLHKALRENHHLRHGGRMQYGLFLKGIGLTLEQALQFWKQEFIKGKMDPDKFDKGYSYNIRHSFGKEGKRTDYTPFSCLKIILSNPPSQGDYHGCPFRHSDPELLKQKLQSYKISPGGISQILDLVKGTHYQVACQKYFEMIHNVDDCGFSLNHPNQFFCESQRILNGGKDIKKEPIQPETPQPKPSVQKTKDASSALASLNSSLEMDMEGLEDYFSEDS
T1 sequence (P09884 whole entry partner): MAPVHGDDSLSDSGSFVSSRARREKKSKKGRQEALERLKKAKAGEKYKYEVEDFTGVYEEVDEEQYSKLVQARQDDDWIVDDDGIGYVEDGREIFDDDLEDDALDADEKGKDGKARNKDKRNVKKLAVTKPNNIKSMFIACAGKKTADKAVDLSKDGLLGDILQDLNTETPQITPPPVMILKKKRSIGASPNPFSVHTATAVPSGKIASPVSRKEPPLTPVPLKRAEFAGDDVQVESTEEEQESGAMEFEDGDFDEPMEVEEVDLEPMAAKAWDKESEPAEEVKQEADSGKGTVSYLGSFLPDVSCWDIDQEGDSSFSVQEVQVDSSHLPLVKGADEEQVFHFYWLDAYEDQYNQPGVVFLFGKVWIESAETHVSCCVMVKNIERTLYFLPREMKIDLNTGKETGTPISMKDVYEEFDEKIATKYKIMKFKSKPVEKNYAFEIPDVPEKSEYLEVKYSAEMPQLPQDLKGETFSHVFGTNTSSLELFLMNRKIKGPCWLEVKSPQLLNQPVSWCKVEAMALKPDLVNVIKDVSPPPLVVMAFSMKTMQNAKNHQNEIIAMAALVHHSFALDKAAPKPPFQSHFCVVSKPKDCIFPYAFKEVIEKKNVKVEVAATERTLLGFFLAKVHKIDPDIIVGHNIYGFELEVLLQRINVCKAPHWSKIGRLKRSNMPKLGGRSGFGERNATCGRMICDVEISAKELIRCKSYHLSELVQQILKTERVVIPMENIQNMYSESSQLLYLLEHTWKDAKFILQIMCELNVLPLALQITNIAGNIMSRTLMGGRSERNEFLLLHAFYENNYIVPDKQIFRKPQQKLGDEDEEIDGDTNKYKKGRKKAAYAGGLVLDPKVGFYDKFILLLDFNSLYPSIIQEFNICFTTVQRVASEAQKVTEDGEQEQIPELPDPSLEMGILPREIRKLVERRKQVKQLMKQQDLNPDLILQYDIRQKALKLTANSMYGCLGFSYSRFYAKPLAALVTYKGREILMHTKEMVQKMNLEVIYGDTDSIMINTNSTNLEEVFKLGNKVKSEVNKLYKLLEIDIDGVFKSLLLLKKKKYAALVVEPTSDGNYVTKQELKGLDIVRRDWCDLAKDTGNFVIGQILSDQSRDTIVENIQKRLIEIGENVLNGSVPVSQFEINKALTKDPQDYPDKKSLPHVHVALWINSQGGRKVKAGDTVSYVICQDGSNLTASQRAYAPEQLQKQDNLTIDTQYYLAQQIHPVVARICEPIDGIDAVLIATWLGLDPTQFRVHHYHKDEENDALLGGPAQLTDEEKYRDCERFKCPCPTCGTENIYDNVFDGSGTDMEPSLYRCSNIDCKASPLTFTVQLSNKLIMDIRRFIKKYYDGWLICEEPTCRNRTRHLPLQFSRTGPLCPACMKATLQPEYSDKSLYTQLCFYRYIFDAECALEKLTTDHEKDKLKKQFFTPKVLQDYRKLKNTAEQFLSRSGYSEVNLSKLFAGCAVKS
T1 sequence (Q14181 whole entry partner): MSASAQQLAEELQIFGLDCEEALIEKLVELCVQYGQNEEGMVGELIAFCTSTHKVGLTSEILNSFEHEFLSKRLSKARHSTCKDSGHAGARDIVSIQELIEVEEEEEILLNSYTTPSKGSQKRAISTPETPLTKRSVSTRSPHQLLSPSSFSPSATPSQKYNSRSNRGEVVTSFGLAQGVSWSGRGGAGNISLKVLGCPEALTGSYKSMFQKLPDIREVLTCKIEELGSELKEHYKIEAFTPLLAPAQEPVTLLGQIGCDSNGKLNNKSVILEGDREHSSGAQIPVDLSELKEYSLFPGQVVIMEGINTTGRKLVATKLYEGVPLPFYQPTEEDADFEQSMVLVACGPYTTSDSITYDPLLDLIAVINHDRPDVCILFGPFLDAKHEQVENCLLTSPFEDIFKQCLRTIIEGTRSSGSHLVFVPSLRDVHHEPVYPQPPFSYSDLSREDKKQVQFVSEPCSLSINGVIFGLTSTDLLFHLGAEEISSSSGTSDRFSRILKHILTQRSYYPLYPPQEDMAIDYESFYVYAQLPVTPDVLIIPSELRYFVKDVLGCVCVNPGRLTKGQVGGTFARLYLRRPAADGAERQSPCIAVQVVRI

IC50 [µM]	Compound
~37	O=C(Nc1cccc(C(F)(F)F)c1)c1csc(-c2ccncc2)n1 [Compound 4]
~44	O=C(Nc1ccc(C(F)(F)F)cc1)c1csc(-c2ccncc2)n1 [Compound 5]
~63	O=C(Nc1ccc(Br)cc1)c1csc(-c2ccncc2)n1 [Compound 7]
~37	O=C(Nc1ccc(Cl)cc1)c1csc(-c2ccncc2)n1 [Compound 6]
~30	O=C(Nc1ccccc1Cl)c1csc(-c2cccnc2)n1 [Compound 2]
~19	O=C(Nc1ccc(F)cc1F)c1csc(-c2ccncc2)n1 [Compound 8]
